From patent US20210261642A1, “SOLUBILITY OF GLP-1 PEPTIDE” (Novo Nordisk A/S, priority 2017, published 2021)

Assay: Assay (I): Determination of Solubility (96-well plate, pH 3.0-11.0, organic solvent 0-70% w/w, UV absorption at 280 nm)
Assay type: physicochemical
Settings: Method 1
Experimental: Assay (I): Determination of Solubility
96-Well Plate Preparation
96-well plates containing target peptide in a solid form were prepared in one of two ways:
Method 1 (evaporation): Addition of 100 μl stock solution of said peptide at a concentration of 4-6 mg/ml to each well of a 96-well half area plate (150 μl well size). Subsequently the solvent was evaporated by applying a vacuum until the solvent was completely removed.
Method 2 (precipitation): Addition of a certain volume of a stock solution of said peptide containing to each well of a 96-well half area plate followed by the addition of a certain volume of concentrated phosphoric acid to obtain a pH of 4.6 followed by addition of a certain volume of ethanol resulting in a final ethanol concentration of 20% v/v. Subsequently the plate was stored at 4° C. for 1 h and then centrifuged at 4,000 rpm for 20 min. Finally the supernatant was removed. The concentration of the stock solution was chosen in a way that the final amount of peptide after supernatant removal was >0.4 mg per well.
In both cases the stock solution was prepared by adding de-ionized water to a certain amount of powder of said peptide followed by a stepwise addition of small amounts of a concentrated sodium hydroxide solution until said peptide was completely in solution.
To determine solubility of a target peptide at different pH and organic solvent concentrations, two different buffer systems were used in independent experiments to cover the whole range from pH 3.0 to pH 11.0. Buffer system 1 covers pH 3.0-7.5 and buffer system 2 covers pH 7.5-11.0. For each buffer system 96 different solvent compositions were premixed in the following way: • 1. A low pH buffer (adjusted to either pH 3.0 or pH 7.5) and a high pH buffer (adjusted to either pH 7.5 or pH 11.0) were mixed at 8 different ratios to obtain values between pH 3.0 and pH 7.5 or pH 7.5 and pH 11.0, respectively. The total volume after mixing was 300 μl. • 2. 12 different amounts of organic solvent were then added to these buffers to obtain organic solvent (e.g. ethanol) concentrations between 0 and 70% w/w. • 3. Water was then added to obtain a total weight of 1.0 g of solvent in each well.
After preparing the 96 different solvent systems, 100 μl of each system was transferred to the 96-well plate containing the solid form of the target peptide (prepared as described in the section “96-well plate preparation”). The plate was then stored at a given temperature (between 5° C. and 70° C.) for a given time on a rotating shaker set to 400 rpm. At regular time intervals the plate was centrifuged (4,000 rpm for 10 min) and a 10 μl sample was taken from each well. The samples were then analysed by UV absorption at 280 nm for peptide quantification. Peptide concentration results are given as UV absorption at 280 nm of the sample subtracted UV absorption at 280 nm of a well comprising 10 μl water.
The buffers used were as follows: • Buffer system 1 (for the pH range from pH 3.0-7.5)
• Buffer system 2 (for the pH ranae from pH 7.5-11.0)
Solubility of liraglutide was determined using Assay (I) described herein. Liraglutide was prepared using Method 1 (evaporation) or Method 2 (precipitation) as described in subsection “96-well plate preparation”.

## CCCCCCCCCCCCCCCC(=O)N[C@@H](CCC(=O)NCCCC[C@H](NC(=O)[C@H](C)NC(=O)[C@H](C)NC(=O)[C@H](CCC(N)=O)NC(=O)CNC(=O)[C@H](CCC(=O)O)NC(=O)[C@H](CC(C)C)NC(=O)[C@H](Cc1ccc(O)cc1)NC(=O)[C@H](CO)NC(=O)[C@H](CO)NC(=O)[C@@H](NC(=O)[C@H](CC(=O)O)NC(=O)[C@H](CO)NC(=O)[C@@H](NC(=O)[C@H](Cc1ccccc1)NC(=O)[C@@H](NC(=O)CNC(=O)[C@H](CCC(=O)O)NC(=O)[C@H](C)NC(=O)[C@@H](N)Cc1cnc[nH]1)[C@@H](C)O)[C@@H](C)O)C(C)C)C(=O)N[C@@H](CCC(=O)O)C(=O)N[C@@H](Cc1ccccc1)C(=O)N[C@H](C(=O)N[C@@H](C)C(=O)N[C@@H](Cc1c[nH]c2ccccc12)C(=O)N[C@@H](CC(C)C)C(=O)N[C@H](C(=O)N[C@@H](CCCNC(=N)N)C(=O)NCC(=O)N[C@@H](CCCNC(=N)N)C(=O)NCC(=O)O)C(C)C)[C@@H](C)CC)C(=O)O [liraglutide, Arg34,Lys26-(N-epsilon-(gamma-L-glutamyl(N-alfa-hexadecanoyl)))-GLP-1(7-37)]
MeCN 0.0% w/w, pH 3.0, RT
  Peptide concentration after 5 min: 0.1 mg/mL
  Peptide concentration after 180 min: 0.1 mg/mL
MeCN 0.0% w/w, pH 3.6, RT
  Peptide concentration after 5 min: 0.1 mg/mL
  Peptide concentration after 180 min: 0.1 mg/mL
MeCN 0.0% w/w, pH 4.3, 5° C.
  Peptide concentration after 5 min: 0.1 mg/mL
  Peptide concentration after 180 min: 0.1 mg/mL
MeCN 0.0% w/w, pH 4.3, RT
  Peptide concentration after 5 min: 0.1 mg/mL
  Peptide concentration after 180 min: 0.1 mg/mL
  Peptide concentration after 24 h: 0.0 mg/mL
MeCN 0.0% w/w, pH 4.9, 5° C.
  Peptide concentration after 5 min: 0.2 mg/mL
  Peptide concentration after 180 min: 0.1 mg/mL
MeCN 0.0% w/w, pH 5.6, 5° C.
  Peptide concentration after 5 min: 0.1 mg/mL
  Peptide concentration after 180 min: 0.1 mg/mL
  Peptide concentration after 24 h: 0.1 mg/mL
MeCN 0.0% w/w, pH 5.6, RT
  Peptide concentration after 24 h: 0.0 mg/mL
MeCN 0.0% w/w, pH 6.2, 5° C.
  Peptide concentration after 5 min: 0.1 mg/mL
  Peptide concentration after 180 min: 0.1 mg/mL
MeCN 0.0% w/w, pH 6.9, 5° C.
  Peptide concentration after 5 min: 0.4 mg/mL
  Peptide concentration after 180 min: 2.0 mg/mL
  Peptide concentration after 24 h: >4.0 mg/mL
MeCN 0.0% w/w, pH 6.9, RT
  Peptide concentration after 24 h: >4.0 mg/mL
MeCN 0.0% w/w, pH 7.5, 5° C.
  Peptide concentration after 5 min: 0.6 mg/mL
  Peptide concentration after 180 min: 2.6 mg/mL
  Peptide concentration after 24 h: >4.0 mg/mL
MeCN 0.0% w/w, pH 7.5, RT
  Peptide concentration after 24 h: >4.0 mg/mL
MeCN 0.0% w/w, pH 8.0, 5° C.
  Peptide concentration after 5 min: 0.5 mg/mL
  Peptide concentration after 180 min: 2.1 mg/mL
  Peptide concentration after 24 h: >4.0 mg/mL
MeCN 0.0% w/w, pH 8.5, 5° C.
  Peptide concentration after 5 min: 0.3 mg/mL
  Peptide concentration after 180 min: 2.9 mg/mL
  Peptide concentration after 24 h: >4.0 mg/mL
MeCN 0.0% w/w, pH 9.0, 5° C.
  Peptide concentration after 5 min: 0.3 mg/mL
  Peptide concentration after 180 min: 2.8 mg/mL
  Peptide concentration after 24 h: >4.0 mg/mL
MeCN 0.0% w/w, pH 9.5, 5° C.
  Peptide concentration after 5 min: 0.4 mg/mL
  Peptide concentration after 180 min: 2.6 mg/mL
  Peptide concentration after 24 h: >4.0 mg/mL
MeCN 0.0% w/w, pH 10.0, 5° C.
  Peptide concentration after 5 min: 0.4 mg/mL
  Peptide concentration after 180 min: 3.1 mg/mL
  Peptide concentration after 24 h: >4.0 mg/mL
MeCN 0.0% w/w, pH 10.5, 5° C.
  Peptide concentration after 5 min: 0.5 mg/mL
  Peptide concentration after 180 min: 2.9 mg/mL
  Peptide concentration after 24 h: >4.0 mg/mL
MeCN 0.0% w/w, pH 11.0, 5° C.
  Peptide concentration after 5 min: 0.2 mg/mL
  Peptide concentration after 180 min: 1.6 mg/mL
  Peptide concentration after 24 h: >4.0 mg/mL
MeCN 6.4% w/w, pH 3.0, 5° C.
  Peptide concentration after 5 min: 0.1 mg/mL
  Peptide concentration after 180 min: 0.2 mg/mL
  Peptide concentration after 24 h: 0.3 mg/mL
MeCN 6.4% w/w, pH 3.0, RT
  Peptide concentration after 24 h: 0.1 mg/mL
MeCN 6.4% w/w, pH 3.6, 5° C.
  Peptide concentration after 5 min: 0.1 mg/mL
  Peptide concentration after 180 min: 0.1 mg/mL
  Peptide concentration after 24 h: 0.2 mg/mL
MeCN 6.4% w/w, pH 3.6, RT
  Peptide concentration after 24 h: 0.1 mg/mL
MeCN 6.4% w/w, pH 4.3, 5° C.
  Peptide concentration after 5 min: 0.1 mg/mL
  Peptide concentration after 180 min: 0.1 mg/mL
  Peptide concentration after 24 h: 0.2 mg/mL
MeCN 6.4% w/w, pH 8.0, 5° C.
  Peptide concentration after 5 min: 0.8 mg/mL
  Peptide concentration after 180 min: 2.2 mg/mL
  Peptide concentration after 24 h: >4.0 mg/mL
MeCN 6.4% w/w, pH 8.5, 5° C.
  Peptide concentration after 5 min: 0.8 mg/mL
  Peptide concentration after 180 min: 2.6 mg/mL
  Peptide concentration after 24 h: >4.0 mg/mL
MeCN 6.4% w/w, pH 9.0, 5° C.
  Peptide concentration after 5 min: 1.0 mg/mL
  Peptide concentration after 180 min: 2.9 mg/mL
  Peptide concentration after 24 h: >4.0 mg/mL
MeCN 6.4% w/w, pH 9.5, 5° C.
  Peptide concentration after 5 min: 0.6 mg/mL
  Peptide concentration after 180 min: 2.5 mg/mL
  Peptide concentration after 24 h: >4.0 mg/mL
MeCN 6.4% w/w, pH 10.0, 5° C.
  Peptide concentration after 5 min: 1.0 mg/mL
  Peptide concentration after 180 min: 3.1 mg/mL
  Peptide concentration after 24 h: >4.0 mg/mL
MeCN 6.4% w/w, pH 10.5, 5° C.
  Peptide concentration after 5 min: 0.7 mg/mL
  Peptide concentration after 180 min: 2.6 mg/mL
  Peptide concentration after 24 h: >4.0 mg/mL
MeCN 6.4% w/w, pH 11.0, 5° C.
  Peptide concentration after 5 min: 0.7 mg/mL
  Peptide concentration after 180 min: 1.7 mg/mL
  Peptide concentration after 24 h: >4.0 mg/mL
MeCN 12.7% w/w, pH 8.0, 5° C.
  Peptide concentration after 5 min: 1.3 mg/mL
  Peptide concentration after 180 min: 2.2 mg/mL
  Peptide concentration after 24 h: >4.0 mg/mL
MeCN 12.7% w/w, pH 8.5, 5° C.
  Peptide concentration after 5 min: 0.8 mg/mL
  Peptide concentration after 180 min: 2.1 mg/mL
  Peptide concentration after 24 h: >4.0 mg/mL
MeCN 12.7% w/w, pH 9.0, 5° C.
  Peptide concentration after 5 min: 0.8 mg/mL
  Peptide concentration after 180 min: 1.8 mg/mL
  Peptide concentration after 24 h: >4.0 mg/mL
MeCN 12.7% w/w, pH 9.5, 5° C.
  Peptide concentration after 5 min: 0.9 mg/mL
  Peptide concentration after 180 min: 1.9 mg/mL
  Peptide concentration after 24 h: >4.0 mg/mL
MeCN 12.7% w/w, pH 10.0, 5° C.
  Peptide concentration after 5 min: 0.8 mg/mL
  Peptide concentration after 180 min: 2.3 mg/mL
  Peptide concentration after 24 h: >4.0 mg/mL
MeCN 12.7% w/w, pH 10.5, 5° C.
  Peptide concentration after 5 min: 1.1 mg/mL
  Peptide concentration after 180 min: 2.1 mg/mL
  Peptide concentration after 24 h: >4.0 mg/mL
MeCN 12.7% w/w, pH 11.0, 5° C.
  Peptide concentration after 5 min: 0.6 mg/mL
  Peptide concentration after 180 min: 1.5 mg/mL
  Peptide concentration after 24 h: >4.0 mg/mL
MeCN 19.1% w/w, pH 8.0, 5° C.
  Peptide concentration after 5 min: 1.0 mg/mL
  Peptide concentration after 180 min: 2.7 mg/mL
  Peptide concentration after 24 h: >4.0 mg/mL
